What all share (type): cell-based
Experiment [1] addresses T1, adenosine A2b receptor (Homo sapiens, UniProt P29275).
T1 construct: expressed in transfected cells; host or cells: CHO (Chinese Hamster Ovary)
T1 sequence (P29275 1-332): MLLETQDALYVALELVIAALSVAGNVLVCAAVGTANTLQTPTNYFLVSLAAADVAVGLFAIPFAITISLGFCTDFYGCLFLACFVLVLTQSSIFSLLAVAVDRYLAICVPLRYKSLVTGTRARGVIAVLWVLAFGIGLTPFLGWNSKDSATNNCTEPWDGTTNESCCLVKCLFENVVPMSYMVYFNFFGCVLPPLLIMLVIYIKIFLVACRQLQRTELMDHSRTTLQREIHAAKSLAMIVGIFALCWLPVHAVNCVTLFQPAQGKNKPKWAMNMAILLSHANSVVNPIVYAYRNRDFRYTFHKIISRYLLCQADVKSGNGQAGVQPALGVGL
The experiment can be described thus: Indirect determination of adenosine agonism by way of gene expression (luciferase, CHO cells), A2b. The following applies: CHO cells stably transfected with A2b receptor cDNA; 50% of maximum luciferase stimulation. From the text:
(§1) B-1. Indirect Determination of the Adenosine Agonism by Way of Gene Expression
(§2) Cells of the CHO (Chinese Hamster Ovary) permanent cell line are transfected stably with the cDNA for the adenosine receptor subtypes A1, A2a and A2b. The adenosine A1 receptors are coupled to the adenylate cyclase by way of Gi proteins, while the adenosine A2a and A2b receptors are coupled by way of Gs proteins. In correspondence with this, the formation of cAMP in the cell is inhibited or stimulated, respectively. After that, expression of the luciferase is modulated by way of a cAMP-dependent promoter. The luciferase test is optimized, with the aim of high sensitivity and reproducibility, low variance and good suitability for implementation on a robot system, by varying several test parameters, such as cell density, duration of the growth phase and the test incubation, forskolin concentration and medium composition. The following test protocol is used for pharmacologically characterizing cells and for the robot-assisted substance screening:
(§3) The stock cultures are grown, at 37° C. and under 5% CO2, in DMEM/F12 medium containing 10% FCS (foetal calf serum) and in each case split 1:10 after 2-3 days. The test cultures are seeded in 384-well plates with 2000 cells per well and grown at 37° C. for approx. 48 hours. The medium is then replaced with a physiological sodium chloride solution (130 mM sodium chloride, 5 mM potassium chloride, 2 mM calcium chloride, 20 mM HEPES, 1 mM magnesium chloride hexahydrate, 5 mM sodium bicarbonate, pH 7.4). The substances to be tested, which are dissolved in DMSO, are pipetted into the test cultures (maximum final concentration of DMSO in the test mixture: 0.5%) in a dilution series of from 5×10^−11M to 3×10^−6M (final concentration). 10 minutes later, forskolin is added to the A1 cells and all the cultures are subsequently incubated at 37° C. for four hours. After that, 35 μl of a solution which is composed of 50% lysis reagent (30 mM disodium hydrogenphosphate, 10% glycerol, 3% TritonX100, 25 mM TrisHCl, 2 mM dithiotreitol (DTT), pH 7.8) and 50% luciferase substrate solution (2.5 mM ATP, 0.5 mM luciferin, 0.1 mM coenzyme A, 10 mM tricine, 1.35 mM magnesium sulphate, 15 mM DTT, pH 7.8) are added to the test cultures, which are shaken for approx. 1 minute and the luciferase activity is measured using a camera system. The EC50 values are determined, i.e., the concentrations at which 50% of the luciferase answer is inhibited in the case of the A1 cell, and, respectively, 50% of the maximum stimulation with the corresponding substance is achieved in the case of the A2b and A2a cells. […] Pharmacol., 357 (1998), 1-9).
(§4) Table 18 below lists the EC50 values of representative working examples for the receptor stimulation on adenosine A1, A2a and A2b receptor subtypes: […]

For experiment [2], the target named is T2, adenosine A2a receptor (Homo sapiens, UniProt P29274).
T2 construct: expressed in transfected cells; host or cells: CHO (Chinese Hamster Ovary)
The experiment can be described thus: Indirect determination of adenosine agonism by way of gene expression (luciferase, CHO cells), A2a. The following applies: CHO cells stably transfected with A2a receptor cDNA; 50% of maximum luciferase stimulation.
Excerpt: as §1, §2, §3, §4

In experiment [3] the target is T3, adenosine A1 receptor (Homo sapiens, UniProt P30542).
T3 construct: expressed in transfected cells; host or cells: CHO (Chinese Hamster Ovary)
T3 sequence (P30542 1-326): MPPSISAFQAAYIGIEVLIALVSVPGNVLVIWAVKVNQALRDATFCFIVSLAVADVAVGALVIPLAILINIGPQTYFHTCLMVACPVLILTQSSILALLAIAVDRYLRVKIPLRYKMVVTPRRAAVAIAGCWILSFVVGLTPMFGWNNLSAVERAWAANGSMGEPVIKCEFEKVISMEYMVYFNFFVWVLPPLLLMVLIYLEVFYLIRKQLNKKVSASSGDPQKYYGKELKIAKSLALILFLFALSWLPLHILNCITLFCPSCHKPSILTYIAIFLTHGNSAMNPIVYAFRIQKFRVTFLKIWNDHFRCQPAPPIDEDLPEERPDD
The experiment can be described thus: Indirect determination of adenosine agonism by way of gene expression (luciferase, CHO cells), A1. The following applies: CHO cells stably transfected with A1 receptor cDNA; 1 μM forskolin; 50% inhibition of luciferase answer.
Excerpt: as §1, §2, §3, §4

Experimental findings from patent US8440700B2, “Substituted aryloxazoles and their use” (Bayer Intellectual Property GmbH, priority 2007, dated 2013) are described below.

Each structure is given as a SMILES string.

T2 sequence (P29274 whole entry): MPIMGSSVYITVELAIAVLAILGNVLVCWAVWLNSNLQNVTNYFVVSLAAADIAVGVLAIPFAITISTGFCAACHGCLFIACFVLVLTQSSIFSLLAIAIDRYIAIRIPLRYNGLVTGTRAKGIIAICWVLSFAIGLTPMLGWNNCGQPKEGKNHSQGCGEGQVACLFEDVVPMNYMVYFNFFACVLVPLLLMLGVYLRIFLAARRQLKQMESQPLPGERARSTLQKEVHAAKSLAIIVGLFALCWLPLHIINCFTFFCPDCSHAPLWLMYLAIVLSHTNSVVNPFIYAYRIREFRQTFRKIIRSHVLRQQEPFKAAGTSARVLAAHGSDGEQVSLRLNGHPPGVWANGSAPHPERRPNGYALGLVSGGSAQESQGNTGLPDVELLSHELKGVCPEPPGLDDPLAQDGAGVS

What is called EC50 is the concentration that produces a half-maximal response. For `N#Cc1c(N)nc(SCc2coc(-c3ccc(F)c(Cl)c3)n2)c(C#N)c1-c1ccc(OCCO)cc1` [Example 10], the results for the EC50 in experiment [1], in experiment [2] and in experiment [3] were 922 nM, 1130 nM and 0.5 nM, respectively.
The corresponding values for `N#Cc1c(N)nc(SCc2coc(-c3ccc(F)c(F)c3)n2)c(C#N)c1-c1ccc(OCCO)cc1` [Example 11] are 845 nM, 703 nM and 0.3 nM.
On to `Cc1cc(-c2nc(CSc3nc(N)c(C#N)c(-c4ccc(OCCO)cc4)c3C#N)co2)ccc1F` [Example 31], for which the values for the concentration for a half-maximal effect (EC50) in experiment [1], in experiment [2] and in experiment [3] were 315 nM, 467 nM and 0.9 nM, respectively.
The corresponding values for `N#Cc1c(N)nc(SCc2coc(-c3ccc(Cl)cc3)n2)c(C#N)c1-c1ccc(OC[C@@H](O)CO)cc1` [Example 48, 2-Amino-6-({[2-(4-chlorophenyl)-1,3-oxazol-4-yl]methyl}sulfanyl)-4-(4-{[(2S)-2,3-dihydroxypropyl]oxy}phenyl)pyridine-3,5-dicarbonitrile] are 4.4 nM, 138 nM and 0.3 nM.
The matching figures for `N#Cc1c(N)nc(SCc2coc(-c3ccc(Cl)cc3)n2)c(C#N)c1-c1ccc(OC[C@H](O)CO)cc1` [Example 49, 2-Amino-6-({[2-(4-chlorophenyl)-1,3-oxazol-4-yl]methyl}sulfanyl)-4-(4-{[(2R)-2,3-dihydroxypropyl]oxy}phenyl)pyridine-3,5-dicarbonitrile]: 100 nM, 300 nM and 0.4 nM.
On to `Cc1oc(-c2ccc(F)cc2)nc1CSc1nc(N)c(C#N)c(-c2ccc(OC[C@@H](O)CO)cc2)c1C#N` [Example 50], for which the 50% effective concentration (EC50) in experiment [1] was found to be 118 nM; in experiment [3], 0.4 nM.
As to `COC(=O)c1ccc(-c2nc(CSc3nc(N)c(C#N)c(-c4ccc(OC[C@@H](O)CO)cc4)c3C#N)c(C)o2)cc1` [Example 57], the EC50 came to 44 nM in experiment [1], 525 nM in experiment [2] and 0.2 nM in experiment [3].
`Cc1oc(-c2ccc(Cl)cc2)nc1CSc1nc(N)c(C#N)c(-c2ccc(OC[C@@H](O)CO)cc2)c1C#N` [Example 60]: the EC50 was 236 nM in experiment [1] and 0.3 nM in experiment [3].
Consider `Cc1oc(-c2ccccc2F)nc1CSc1nc(N)c(C#N)c(-c2ccc(OC[C@@H](O)CO)cc2)c1C#N` [Example 61], for which the EC50 is 221 nM in experiment [1], 439 nM in experiment [2] and 0.7 nM in experiment [3].
Regarding `COc1ccc(-c2nc(CSc3nc(N)c(C#N)c(-c4ccc(OC[C@H](O)CO)cc4)c3C#N)c(C)o2)cc1` [Example 66], the EC50 came out at 370 nM in experiment [1], 575 nM in experiment [2] and 0.9 nM in experiment [3].
Regarding `Cc1cc(-c2nc(CSc3nc(N)c(C#N)c(-c4ccc(OC[C@H](O)CO)cc4)c3C#N)co2)ccc1Cl` [Example 80], the EC50 was 89 nM in experiment [1], 461 nM in experiment [2] and 0.8 nM in experiment [3].
Regarding `N#Cc1c(N)nc(SCc2coc(-c3ccc(F)cc3)n2)c(C#N)c1-c1ccc(OC[C@@H](O)CO)cc1` [Example 81], the values for the EC50 in experiment [1], in experiment [2] and in experiment [3] were 20 nM, 64 nM and 0.3 nM, respectively.
The corresponding values for `N#Cc1c(N)nc(SCc2ncoc2-c2ccc(Cl)cc2)c(C#N)c1-c1ccc(OC[C@@H](O)CO)cc1` [Example 93] are 336 nM, 522 nM and 8.9 nM.
`Cc1oc(-c2ccc(C(=O)O)cc2)nc1CSc1nc(N)c(C#N)c(-c2ccc(OCC(C)(C)O)cc2)c1C#N` [Example 95, 4-{4-[({6-Amino-3,5-dicyano-4-[4-(2-hydroxy-2-methylpropoxy)phenyl]pyridin-2-yl}thio)methyl]-5-methyl-1,3-oxazol-2-yl}benzoic acid] gave an EC50 in experiment [3] of 0.5 nM.
As for `N#Cc1c(N)nc(SCc2coc(-c3ccc(F)cc3)n2)c(C#N)c1-c1ccc(OC[C@H](O)CO)cc1` [Example 101], the EC50 is 226 nM in experiment [1], 72 nM in experiment [2] and 0.4 nM in experiment [3].
`C[C@H](O)COc1ccc(-c2c(C#N)c(N)nc(SCc3coc(-c4ccc(Cl)cc4)n3)c2C#N)cc1` [Example 106]: the EC50 in experiment [1] is 48 nM; in experiment [2] it was 318 nM; in experiment [3], 0.3 nM.
On to `N#Cc1c(N)nc(OCc2coc(-c3ccc(Cl)cc3)n2)c(C#N)c1-c1ccc(OCCO)cc1` [Example 110, 2-Amino-6-{[2-(4-chlorophenyl)-1,3-oxazol-4-yl]methoxy}-4-[4-(2-hydroxyethoxy)phenyl]pyridine-3,5-dicarbonitrile], for which the EC50 in experiment [1] came out at 95 nM; in experiment [2] it was 497 nM; in experiment [3] it was 0.3 nM.
The matching figures for `N#Cc1c(N)nc(OCc2coc(-c3ccc(F)c(F)c3)n2)c(C#N)c1-c1ccc(OCCO)cc1` [Example 114]: 969 nM, 1970 nM and 0.2 nM.
For the molecule `N#Cc1c(SCc2coc(-c3ccc(Cl)cc3)n2)nc(N2CCCC2)c(C#N)c1-c1ccc(OCCO)cc1` [Example 116, 2-({[2-(4-Chlorophenyl)-1,3-oxazol-4-yl]methyl}sulfanyl)-4-[4-(2-hydroxyethoxy)phenyl]-6-(pyrrolidin-1-yl)pyridine-3,5-dicarbonitrile], the EC50 in experiment [1] worked out at 698 nM; in experiment [3], 0.4 nM.
Regarding `N#Cc1c(NCCO)nc(SCc2coc(-c3ccc(Cl)cc3)n2)c(C#N)c1-c1ccc(OCCO)cc1` [Example 117], the concentration for a half-maximal effect (EC50) in experiment [1] worked out at 1090 nM; in experiment [2] it was 1440 nM; in experiment [3], 0.2 nM.
Take `N#Cc1c(NC[C@@H](O)CO)nc(SCc2coc(-c3ccc(Cl)cc3)n2)c(C#N)c1-c1ccc(OCCO)cc1` [Example 119]: the EC50 in experiment [2] turned out to be 1950 nM; in experiment [3], 0.3 nM.
With `N#Cc1c(NCCO)nc(SCc2coc(-c3ccc(Cl)cc3)n2)c(C#N)c1-c1ccc(OCCO)c(F)c1` [Example 122, 2-({[2-(4-Chlorophenyl)-1,3-oxazol-4-yl]methyl}sulfanyl)-4-[3-fluoro-4-(2-hydroxyethoxy)phenyl]-6-[(2-hydroxyethyl)amino]pyridine-3,5-dicarbonitrile], the figures for the EC50 in experiment [1] and in experiment [3] were 2250 nM and 4.1 nM, respectively.
`N#Cc1c(SCc2coc(-c3ccc(Cl)cc3)n2)nc(N2CCC2)c(C#N)c1-c1ccc(OCCO)cc1` [Example 126]: the concentration for a half-maximal effect (EC50) in experiment [1] amounted to 78 nM; in experiment [2], 684 nM; in experiment [3] it was 0.5 nM.
Take `N#Cc1c(SCc2coc(-c3ccc(Cl)cc3)n2)nc(N2CC[C@@H](O)C2)c(C#N)c1-c1ccc(OCCO)cc1` [Example 127]: the EC50 in experiment [1] was 283 nM; in experiment [2], 984 nM; in experiment [3], 0.4 nM.
Regarding `N#Cc1c(NCCO)nc(OCc2coc(-c3ccc(Cl)cc3)n2)c(C#N)c1-c1ccc(OCCO)cc1` [Example 129], the EC50 in experiment [3] came out at 0.4 nM.
Take `N#Cc1c(OCc2coc(-c3ccc(Cl)cc3)n2)nc(N2CC(O)C2)c(C#N)c1-c1ccc(OCCO)cc1` [Example 130]: the EC50 in experiment [1] came to 245 nM; in experiment [3], 0.6 nM.
